Laboratory results published in patent publication US11518788B2, “Methods and compositions for treating and preventing viral infection” (priority 2020, dated 2022).

Experiments:
SARS-CoV pseudovirus = assay type: cell-based
SARS-CoV-2 pseudovirus = assay type: cell-based

Substance | inhibition of SARS-CoV pseudovirus entry (SARS-CoV pseudovirus) | inhibition of SARS-CoV-2 pseudovirus entry (SARS-CoV-2 pseudovirus) | percent infection of SARS-CoV-2 pseudovirus particles (SARS-CoV-2 pseudovirus) | efficiency of inhibition of SARS-CoV-2 compared with SARS-CoV and MERS CoV (SARS-CoV-2 pseudovirus)
ACE2-Fc | inhibited | inhibited | reduced percent infection | 
heparin [reference compound] |  |  |  | more efficiently than it does for SARS-CoV and MERS CoV
